{
  "source": "patent US20070010478A1",
  "about": "(priority 2005, published 2007)",
  "key": {"P450 isoenzyme 3A4": {"target": "P450 isoenzyme 3A4 (Homo sapiens, UniProt P08684)", "sequence (P08684 whole entry)": "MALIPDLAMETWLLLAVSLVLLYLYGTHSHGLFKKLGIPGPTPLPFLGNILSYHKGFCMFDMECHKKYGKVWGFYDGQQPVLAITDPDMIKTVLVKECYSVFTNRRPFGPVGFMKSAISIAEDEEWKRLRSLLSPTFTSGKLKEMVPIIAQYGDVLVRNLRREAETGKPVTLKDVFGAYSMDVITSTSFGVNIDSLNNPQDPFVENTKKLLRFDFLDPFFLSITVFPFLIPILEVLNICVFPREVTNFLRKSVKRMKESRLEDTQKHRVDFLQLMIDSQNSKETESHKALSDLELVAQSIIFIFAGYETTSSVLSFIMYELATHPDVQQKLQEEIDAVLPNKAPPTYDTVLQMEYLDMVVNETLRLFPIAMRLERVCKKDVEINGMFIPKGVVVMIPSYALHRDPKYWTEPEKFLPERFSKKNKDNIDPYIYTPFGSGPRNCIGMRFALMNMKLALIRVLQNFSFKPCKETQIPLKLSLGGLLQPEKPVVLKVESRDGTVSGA", "details": "cited from earlier work"}, "P-gp": {"target": "T1, P-gp (Homo sapiens, UniProt P08183)", "T1 construct": "endogenous in cells; host or cells: circulating NK cells and leukemic blasts of AML patients", "T1 sequence (P08183 whole entry, the tested form may be a part)": "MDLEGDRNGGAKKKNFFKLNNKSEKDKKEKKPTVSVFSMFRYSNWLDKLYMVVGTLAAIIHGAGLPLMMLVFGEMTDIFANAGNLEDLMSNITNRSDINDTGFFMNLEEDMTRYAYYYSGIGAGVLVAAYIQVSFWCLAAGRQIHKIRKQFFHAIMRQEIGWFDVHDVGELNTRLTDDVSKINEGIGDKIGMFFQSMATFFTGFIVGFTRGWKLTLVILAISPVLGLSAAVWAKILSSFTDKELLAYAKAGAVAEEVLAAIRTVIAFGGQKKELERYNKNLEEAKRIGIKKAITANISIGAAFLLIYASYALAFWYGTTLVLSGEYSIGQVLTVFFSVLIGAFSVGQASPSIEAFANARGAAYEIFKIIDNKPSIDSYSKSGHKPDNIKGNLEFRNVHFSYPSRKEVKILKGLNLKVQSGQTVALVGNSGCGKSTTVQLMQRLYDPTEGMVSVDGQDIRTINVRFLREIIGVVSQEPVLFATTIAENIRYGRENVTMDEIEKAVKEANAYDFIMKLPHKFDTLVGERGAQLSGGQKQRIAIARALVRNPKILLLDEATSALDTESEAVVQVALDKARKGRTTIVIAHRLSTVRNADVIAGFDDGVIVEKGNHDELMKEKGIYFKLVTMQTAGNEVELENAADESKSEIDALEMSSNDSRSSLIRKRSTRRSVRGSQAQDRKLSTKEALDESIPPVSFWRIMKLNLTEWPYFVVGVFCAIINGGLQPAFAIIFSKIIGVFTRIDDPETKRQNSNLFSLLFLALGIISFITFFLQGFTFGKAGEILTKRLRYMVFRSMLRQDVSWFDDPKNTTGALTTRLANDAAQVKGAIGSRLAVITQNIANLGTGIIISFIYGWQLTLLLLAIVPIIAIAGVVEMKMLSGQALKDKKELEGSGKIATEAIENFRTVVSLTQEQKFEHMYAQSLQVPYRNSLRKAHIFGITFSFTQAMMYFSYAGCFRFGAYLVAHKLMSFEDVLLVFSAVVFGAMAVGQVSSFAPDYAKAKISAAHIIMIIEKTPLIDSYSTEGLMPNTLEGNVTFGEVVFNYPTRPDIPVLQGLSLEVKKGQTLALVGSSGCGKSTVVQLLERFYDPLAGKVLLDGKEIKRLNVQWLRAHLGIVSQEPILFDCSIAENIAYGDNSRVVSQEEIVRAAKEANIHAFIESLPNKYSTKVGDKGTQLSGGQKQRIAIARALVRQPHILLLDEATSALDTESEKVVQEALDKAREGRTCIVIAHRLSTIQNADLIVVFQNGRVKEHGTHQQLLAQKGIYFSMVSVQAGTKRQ", "experiment": "cellular P-gp function, DiOC2 accumulation assay with flow cytometry, in AML patients", "type": "in vivo", "details": "circulating NK cells and leukemic blasts; 700 mg/day continuous iv infusion", "method": "Cytarabine was also administered (100 mg/m^2/day) starting after the first dose of daunorubicin as a continuous intravenous infusion on days 1-7. Blood samples were taken at intervals for pharmacokinetic and pharmacodynamic studies. Pharmacokinetic drug determinations were conducted by HPLC. Pharmacodynamic assessments of cellular P-gp function were conducted using an accumulation assay with DiOC2 and flow cytometry. P-gp function was assessed on circulating natural killer (NK) cells and leukemic blasts. […] Means of 3 patients for each time point are shown."}},
  "data": [
    {"smiles": "COc1cc(C(=O)C(=O)N2CCCC[C@H]2C(=O)OC(CCCc2cccnc2)CCCc2cccnc2)cc(OC)c1OC", "note": "[biricodar]", "values": [
      {"measurement": "substrate for the P450 isoenzyme 3A4", "setting": "P450 isoenzyme 3A4", "result": "substrates for the P450 isoenzyme 3A4"}
    ]},
    {"smiles": "C/C=C/C[C@@H](C)C(=O)[C@H]1C(=O)N[C@@H](C(C)C)C(=O)N(C)CC(=O)N(C)[C@@H](CC(C)C)C(=O)N[C@@H](C(C)C)C(=O)N(C)[C@@H](CC(C)C)C(=O)N[C@@H](C)C(=O)N[C@H](C)C(=O)N(C)[C@@H](CC(C)C)C(=O)N(C)[C@@H](CC(C)C)C(=O)N(C)[C@@H](C(C)C)C(=O)N1C", "note": "[valspodar]", "values": [
      {"measurement": "substrate for the P450 isoenzyme 3A4", "setting": "P450 isoenzyme 3A4", "result": "substrates for the P450 isoenzyme 3A4"}
    ]},
    {"smiles": "O[C@@H](COc1cccc2ncccc12)CN1CCN([C@@H]2c3ccccc3[C@@H]3[C@H](c4ccccc42)C3(F)F)CC1", "note": "[zosuquidar]", "values": [
      {"measurement": "time to potent inhibition of P-gp function after start of zosuquidar infusion", "setting": "P-gp", "result": "≤ 2", "unit": "h"}
    ]}
  ]
}
